According to patent US11254644B2, “Inhibitors of alpha-amino-beta-carboxymuconic acid semialdehyde decarboxylase” (TES Pharma S.r.l., priority 2014, dated 2022):
pIC50: −log10 of the molar value.

How the values were obtained:
hACMSD (ACMSD1) = hACMSD (ACMSD1) (Homo sapiens (Human), UniProt Q8TDX5); test: Determination of ACMSD1 inhibition, spectrophotometrical in vitro assay; type: biochemical; details: HAA concentration of 10 μM
Procedure: The activity of compounds as inhibitors of ACMSD1 is determined in a spectrophotometrical in vitro assay. The pre-assay mixture is incubated and a compound of Formula (I), Formula (Ia), Formula (Ib), Formula (II), or Formula (III), or a pharmaceutically acceptable salt thereof, and ACMSD1 solution is then added. The effect of ACMS concentration on the enzyme activity is investigated by varying 3-hydroxyanthranilic acid (3OH-HA) concentration in the pre-assay mixture. Kinetic parameters are calculated from the initial velocity data using a Lineweaver-Burk plot.
The activity of compounds 1-19 and 21-23 as inhibitors of ACMSD1 was determined by measuring the conversion of 3OH-Anthranilic Acid into product (i.e., ACMS) in a spectrophotometrical in vitro assay.
The pre-assay mixture consisting of 3-hydroxyanthranilic acid (3OH-HA), 3-hydroxyanthranilic acid, 3,4-diOxygenase (HAO), and a dialyzed crude extract of E. coli BL21 (DE3) cells expressing the recombinant enzyme, was incubated at 25° C. with monitoring of the increase in absorbance at 360 nm due to the formation of ACMS from 3OH-HA. After the reaction was completed within ˜2 mins, an aliquot of ACMSD1 solution (prepared and purified from Pichia Pastoris overexpressing the recombinant enzyme) was added, and the decrease in absorbance at 360 nm was followed at 15 second intervals. The effect of ACMS concentration on the enzyme activity was investigated by varying 3OH-HA concentration from 2 to 20 μM. Kinetic parameters were calculated from the initial velocity data by using the Lineweaver-Burk plot.
The rate of the decrease in absorbance caused by ACMSD1 was calculated by subtracting that of the control reaction mixture without ACMSD from that described above. One unit of ACMSD activity was indicated as the amount of enzyme that converts 1 mmol of ACMS per minute at 25° C. The absence or a reduction of ACMSD1 activity (e.g., by using ACMSD inhibitors) results in a slow ACMS-spontaneous degradation (i.e., cyclization to form quinolic acid).
The enzymatic activity was determined at a HAA concentration of 10 μM in the presence of the compounds in Table 1 below. The compounds were tested at the concentration of about 5 μM and 10 μM and the IC50 was calculated for compounds showing inhibitory activity higher than 50%.

ACMSD-1 = ACMSD-1 (Homo sapiens (Human), UniProt Q8TDX5); test: ACMSD-1 modulation in HEK293T cells transiently expressing ACMSD; type: cell-based; details: about 50 nM to about 5 uM; stimulated 48 hrs to 72 hrs
ACMSD-1, sequence (Q8TDX5 whole entry): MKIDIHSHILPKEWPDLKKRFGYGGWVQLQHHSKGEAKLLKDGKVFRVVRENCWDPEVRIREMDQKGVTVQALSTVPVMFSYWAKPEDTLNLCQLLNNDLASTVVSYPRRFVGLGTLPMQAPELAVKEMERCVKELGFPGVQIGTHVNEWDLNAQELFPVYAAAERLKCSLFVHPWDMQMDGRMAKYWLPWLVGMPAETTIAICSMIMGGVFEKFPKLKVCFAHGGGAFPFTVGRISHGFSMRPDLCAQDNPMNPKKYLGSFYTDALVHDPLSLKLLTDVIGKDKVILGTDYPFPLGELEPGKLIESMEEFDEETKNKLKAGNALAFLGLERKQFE
Procedure: HEK293T cells are seeded and transfected to transiently express ACMSD. […] The amount of the whole protein content in cell lysates is detected by Bradford analysis and used to get the specificity activity of the enzyme normalized in all samples.
HEK293T cells (ATCC) were seeded in six-well plates and transfected using Fugene HD to express transiently ACMSD. […] The amount of the whole protein content in cell lysates was detected by Bradford analysis. This value was used to get the specificity activity of the enzyme normalized in all samples (mU/ml or ΔE/Δt/mg of total protein).

[1] = test system: SIRT1-regulated genes in AML-12 cells; test: RT-qPCR analysis of SIRT1-regulated genes in AML-12 cells; type: cell-based, mouse; details: 24 hrs
Procedure: (§1) Cells (AML-12, Hepa-1.6, HEK-293, primary human and murine hepatocytes) are treated with different concentrations of a compound of Formula (I), Formula (Ia), Formula (Ib), Formula (II), or Formula (III), or a pharmaceutically acceptable salt thereof and the gene expression of ACMSD, Pgc1a, Sod1, and Sod2 (MnSOD) is determined using RT-qPCR. Total RNA is extracted from cells and the extracted RNA is treated with DNase and used for reverse transcription (RT).
(§2) Gene expression of ACMSD and genes known to be regulated by SIRT1, (an enzyme that is strictly NAD^+ dependent) such as Pgc1a, Sod1, Sod2 (MnSOD), were analysed in AML-12 cells, Hepa-1.6 cells and primary murine hepatocytes treated with Compound 1 or 17.
(§3) Cells (AML-12, Hepa-1.6, HEK-293, primary human and murine hepatocytes) were treated with different concentrations of Compound 1 or Compound 17. Total RNA was extracted from cells using TRIzol (Invitrogen) according to the manufacturer's instructions. The RNA was treated with DNase, and 2 μg of RNA was used for reverse transcription (RT). 50× diluted cDNA was used for RT-quantitative PCR (RT-qPCR) reactions. The RT-qPCR reactions were performed using the Light-Cycler system (Roche Applied Science) and a qPCR Supermix (QIAGEN) with the indicated primers. The average of at least three technical repeats was used for each biological data point.

[2] = test system: SIRT1-regulated genes in Hepa-1.6 cells; test: RT-qPCR analysis of SIRT1-regulated genes in Hepa-1.6 cells; type: cell-based; details: Hepa-1.6 hepatic cell line, 24 hrs
Procedure: as §1, §2, §3

hACMSD (ACMSD1), sequence (Q8TDX5 whole entry): as above

N#Cc1c(-c2ccccc2)nc(SCc2cccc(C(=O)O)c2)[nH]c1=O [Compound 1]
pIC50 (hACMSD (ACMSD1)): 7.30 | ACMSD-1 activity in transfected HEK293T cells (ACMSD-1): inhibited ACMSD-1 activity, in a dose dependent manner | Sod2 mRNA levels [1]: increased in a dose-dependent manner | Sod2 mRNA levels [2]: increased in a dose-dependent manner
